Measured values published in patent US20090047287A1, “MODULATION OF BONE FORMATION” (Wyeth, priority 2006, published 2009).

T1: purified recombinant human GST-14-3-3β (Biomol), P31946
T1 chain: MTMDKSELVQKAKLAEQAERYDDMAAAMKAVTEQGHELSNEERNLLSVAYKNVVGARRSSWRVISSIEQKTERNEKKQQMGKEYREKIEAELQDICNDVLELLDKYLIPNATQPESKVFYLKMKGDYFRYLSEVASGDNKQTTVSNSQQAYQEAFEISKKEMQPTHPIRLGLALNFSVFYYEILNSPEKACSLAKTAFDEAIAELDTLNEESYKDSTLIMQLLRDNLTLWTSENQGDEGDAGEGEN


Experiments:
Ror2 receptor = biological target: T2, Ror2 receptor (Homo sapiens, UniProt Q01974); assay: Ror2 dimerization in U2OS cells, Flag/His-tagged Ror2 co-immunoprecipitation; type: cell-based; details: antibody 1 h at 37 C, vs non-specific goat IgG
T2 construct: expressed in transfected cells; host or cells: U2OS
T2 sequence (Q01974 34-943): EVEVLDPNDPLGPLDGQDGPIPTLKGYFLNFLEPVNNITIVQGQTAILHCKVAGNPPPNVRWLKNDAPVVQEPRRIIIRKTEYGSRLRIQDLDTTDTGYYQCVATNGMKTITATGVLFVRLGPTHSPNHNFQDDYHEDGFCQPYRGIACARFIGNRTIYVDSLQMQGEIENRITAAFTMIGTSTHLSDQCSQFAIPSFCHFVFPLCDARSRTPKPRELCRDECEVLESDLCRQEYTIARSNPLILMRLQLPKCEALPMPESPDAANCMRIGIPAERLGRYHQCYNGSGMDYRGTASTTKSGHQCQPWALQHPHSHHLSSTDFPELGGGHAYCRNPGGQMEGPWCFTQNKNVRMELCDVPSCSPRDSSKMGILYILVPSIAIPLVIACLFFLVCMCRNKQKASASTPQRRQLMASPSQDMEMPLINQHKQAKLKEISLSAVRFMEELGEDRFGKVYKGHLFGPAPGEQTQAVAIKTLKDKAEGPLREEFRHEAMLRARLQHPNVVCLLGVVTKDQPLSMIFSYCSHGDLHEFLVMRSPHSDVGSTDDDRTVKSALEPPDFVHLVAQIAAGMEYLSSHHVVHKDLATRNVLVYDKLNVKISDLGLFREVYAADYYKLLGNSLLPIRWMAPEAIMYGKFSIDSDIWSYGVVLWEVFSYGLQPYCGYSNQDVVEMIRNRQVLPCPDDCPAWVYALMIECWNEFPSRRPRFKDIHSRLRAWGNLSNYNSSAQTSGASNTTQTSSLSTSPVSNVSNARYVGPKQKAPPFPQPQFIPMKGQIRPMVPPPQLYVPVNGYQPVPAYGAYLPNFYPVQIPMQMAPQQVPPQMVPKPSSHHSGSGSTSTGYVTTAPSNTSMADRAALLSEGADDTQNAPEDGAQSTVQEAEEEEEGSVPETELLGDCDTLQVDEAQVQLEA
T2 sequence (Q01974 34-943): as above
Protocol: For Ror2 plasmid transfections, U2OS cells were seeded at ˜80% confluent density and transfected 24 h later with 11 μg of total plasmid DNA per 19.6 cm^2 using Fugene6 transfection reagent (Roche Applied Science, Indianapolis, Ind.) per manufacturer's instructions. For siRNA transfections, U2OS cells were plated on 6-well plates at 52,000 cells/cm^2 and transfected 24 h later with 25 nM of Ror2 siRNA or non-specific siRNA (both from Dharmacon Inc., Lafayette, Colo.) using 10 μl of Lipofectamine 2000 reagent per manufacturer's instructions.
(§1) Cells were solubilized in lysis buffer (150 mM NaCl, 50 mM Tris-HCl, pH 7.5, 1 mM EDTA, 1% Triton X100) supplemented with protease and phosphatase inhibitor cocktails (Sigma) and the extracts were clarified by centrifugation at 10,000×g for 10 min at 4° C. For Flag immunoprecipitation, 1 mg of total cell lysates was incubated with 30 μl of M2 Flag affinity agarose (Sigma) for 1 h with rotation at 4° C. The beads were collected by centrifugation and washed three times in lysis buffer containing 350 mM NaCl and three times in lysis buffer. For 14-3-3β precipitation, 15 μl of 14-3-3β antibody was incubated with 30 μl of protein A sepharose in 1 ml of lysis buffer overnight at 4° C. and the beads were collected by centrifugation and washed in lysis buffer prior to addition of 1 mg of total cell lysates. […]

Ror2-TrkB chimera = biological target: T3, Ror2-TrkB chimera (Homo sapiens, UniProt Q01974, T245A); assay: Ror2-TrkB chimera CRE-luciferase reporter assay in HEK293 cells; type: cell-based; details: HEK-CRE cells expressing Ror2-TrkB chimera, 24 h, compared to non-specific IgG
T3 construct: extracellular domain of Ror2 (aa 1-407) fused to the transmembrane and intracellular domains of TrkB (aa 432-822); expressed in transfected cells
T3 sequence (Q01974 with tags, fused parts or gaps T245A): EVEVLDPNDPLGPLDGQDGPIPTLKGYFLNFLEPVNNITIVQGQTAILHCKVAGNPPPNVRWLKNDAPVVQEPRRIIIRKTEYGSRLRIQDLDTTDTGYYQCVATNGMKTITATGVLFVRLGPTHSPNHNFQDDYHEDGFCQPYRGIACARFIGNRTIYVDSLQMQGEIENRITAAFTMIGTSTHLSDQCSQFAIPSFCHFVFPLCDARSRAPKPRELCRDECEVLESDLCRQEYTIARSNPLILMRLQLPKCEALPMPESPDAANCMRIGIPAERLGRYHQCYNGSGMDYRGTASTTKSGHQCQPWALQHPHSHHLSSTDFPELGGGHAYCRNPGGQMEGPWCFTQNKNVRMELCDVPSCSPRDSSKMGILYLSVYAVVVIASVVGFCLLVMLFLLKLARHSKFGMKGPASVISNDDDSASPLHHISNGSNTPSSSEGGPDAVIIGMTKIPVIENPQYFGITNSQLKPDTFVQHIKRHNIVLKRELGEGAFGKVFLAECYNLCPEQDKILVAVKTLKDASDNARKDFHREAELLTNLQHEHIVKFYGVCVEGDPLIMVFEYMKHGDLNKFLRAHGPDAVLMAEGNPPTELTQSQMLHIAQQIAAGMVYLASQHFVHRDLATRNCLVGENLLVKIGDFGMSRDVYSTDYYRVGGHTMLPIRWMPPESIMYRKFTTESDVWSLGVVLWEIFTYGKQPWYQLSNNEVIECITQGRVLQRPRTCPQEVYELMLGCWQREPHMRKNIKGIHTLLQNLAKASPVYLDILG
Excerpt: FIG. 12 illustrates generation of a high throughput, high sensitivity assay for Ror2 activity. A. Schematic representation of the assay that utilizes the signaling pathway of the TrkB receptor. The TrkB receptor is activated by ligand-induced homo-dimerization that causes phosphorylation of Erk and stimulation of the cAMP response element (CRE) in the promoter of target genes. We generated a chimeric receptor consisting of the extracellular domain of Ror2 (aa 1-407) fused to the transmembrane and intracellular domains of TrkB (aa 432-822). When using this chimera, agents that cause Ror2 dimerization activate TrkB signaling pathway and this activation can be assessed by a CRE promoter-luciferase reporter assay. B. HEK293 cells were stably transfected with the Ror2-TrkB chimera and CRE-luciferase plasmids, treated with the indicated amounts of the anti-Ror2 antibody or non-specific IgG for 24 h, and luciferase activity was assessed. Luciferase activity observed upon treatment with the non-specific IgG was set at 1. […]
The TrkB receptor is activated by ligand-induced homo-dimerization that causes phosphorylation of Erk and stimulation of the cAMP response element (CRE) in the promoter of target genes. […] Colonies were grown at 37 C with 350 μg/ml hygromycin and levels of Ror2-TrkB expression were assessed by western immunoblotting and immunocytochemistry. […]

mouse calvarial bones = assay: Ex vivo mouse calvarial culture with shRNA adenovirus and antibody, histomorphometry (Bioquant); type: cell-based; details: mouse calvariae, 7 days; shRNA 5×10^7 viral particles/ml, antibody 12 μg/ml; vs scrambled shRNA and IgG
Protocol: We next tested if in vitro effects of Ror2 activation and 14-3-3β inhibition translate into increased bone formation in ex vivo organ cultures. Calvarial bones of 4 days old mouse littermates were infected with adenoviruses containing scrambled shRNA or 14-3-3β-specific shRNA at 5×10^7 viral particles/ml; and 48 h later were treated with 12 μg/ml of anti-Ror2 antibody or non-specific IgG in presence of 15 μg/ml calcein. After 7 days of culture with adenoviruses and antibodies, the bones were stained with hematoxylin-eosin and consistent 300 μm stretches (450 μm away from frontal sutures) were subjected to histomorphometric analysis using Bioquant-NOVA MR 5.50.8 (Nashville, Tenn.). Under control conditions of scrambled shRNA infection and IgG treatment, 600 μm length of calvaria contained 9394±1333 μm^2 of bone area and 39.5±7.4 osteoblasts.

Ror2 tyrosine kinase = biological target: T4, Ror2 tyrosine kinase (Homo sapiens, UniProt Q01974); assay: Ror2 activation in U2OS cells, phosphotyrosine precipitation, Ror2 blot; type: cell-based; details: untransfected U2OS cells, antibody 1 h at 37° C., vs IgG control
T4 construct: western immunoblotting for the endogenous Ror2 protein; endogenous in cells; host or cells: U2OS
T4 sequence (Q01974 34-943): as the sequence (Q01974 34-943) above
Protocol: as §1, with “lysates. The binding reaction was carried out for 2 h at 4° C. with mild rotation and the beads were collected and washed as for Flag precipitation. For phosphotyrosine precipitation, 1 mg (for detecting over-expressed proteins) or 1.5 mg (for detecting endogenous proteins) of cellular extract was added to 100 μl of G410 beads and allowed to attach for 3 h at 4° C. At this time, P-Tyr-100 immobilized antibody (100 μl) was added to the mix for an additional 3 h. All beads were collected by centrifugation and washed as for Flag precipitation.” for “lysates.”

[1] = test system: human mesenchymal stem cells (hMSC); assay: Mineralized matrix formation in hMSC, alizarin red-S staining; type: cell-based
Protocol: Human MSC were seeded at 6,000/cm^2 in 12-, or 6-well plates and allowed to adhere and proliferate overnight. Cells were infected for 24 h in 0.4 ml/cm^2 MSCGM using Ror2, Ror2KD, or β-gal adenoviruses at multiplicity of infection (MOI)=750 in presence of hCAR (MOI=750) to improve infection efficiency. After 24 h, cells were washed once in PBS and MSCGM, MSCGM supplemented with 0.05 mM ascorbic acid and 10 mM β-glycerophosphate, or MSCGM containing adipogenic supplements (PT-3004, Cambrex) were added. Where indicated, 100 nM dexamethasone (dex) and/or the indicated antibodies were added to the medium. For shRNA infection, cells were seeded at 6,000/cm^2 in 12- or 6-well plates and allowed to adhere and proliferate for 3 days. Cells were infected for 72 h in 0.4 ml/cm^2 MSCGM using adenoviruses coding for Ror2-specific shRNA or EGFP-specific shRNA at 4,000 viral particles per cell (based on the original seeding density) in presence of hCAR (MOI=750). After 72 h, cells were washed once in PBS, and MSCGM or MSCGM supplemented with 0.05 mM ascorbic acid, 10 mM β-glycerophosphate were added. Where indicated 100 nM dex and/or specific antibodies were added. Every 5 days, either the entire medium or ½ of it was replaced with fresh medium.
Formation of mineralized nodules by hMSC was determined on 12-well plates by alizarin red-S histochemical staining. The cells and matrix were fixed at RT for 1 h with 70% (v/v) ethanol, washed with de-ionized water and stained for 10 min at RT with 40 mM alizarin red-S, pH 4.2. The stained matrix was washed with de-ionized water and photographed. To quantify the level of alizarin red-S staining, the dye was eluted with 1 ml/well of 10% (w/v) Cetylpyridinium Chloride. Alizarin red-S in the eluted samples was quantified (versus a standard curve of 0-800 μM dye) at 562 nm with a microplate reader.

14-3-3β protein = assay: Ror2 activation in U2OS cells, phosphotyrosine precipitation, 14-3-3β blot; type: cell-based, human; details: untransfected U2OS cells, antibody 1 h at 37° C., vs IgG control
Protocol: as §1, with “lysates. The binding reaction was carried out for 2 h at 4° C. with mild rotation and the beads were collected and washed as for Flag precipitation. For phosphotyrosine precipitation, 1 mg (for detecting over-expressed proteins) or 1.5 mg (for detecting endogenous proteins) of cellular extract was added to 100 μl of G410 beads and allowed to attach for 3 h at 4° C. At this time, P-Tyr-100 immobilized antibody (100 μl) was added to the mix for an additional 3 h. All beads were collected by centrifugation and washed as for Flag precipitation.” for “lysates.”

[2] = biological target: T1, purified recombinant human GST-14-3-3β …

| Ror2 homodimer formation (His-tagged with Flag-tagged Ror2) (Ror2 receptor) | luciferase activity (CRE promoter) (Ror2-TrkB chimera) | autophosphorylation of the Ror2 kinase (Ror2 tyrosine kinase) | Molecule | increase in the osteoblast number (mouse calvarial bones) [%] | increase in the total bone area (mouse calvarial bones) [%] | antibody effect on matrix mineralization when Ror2 expression is inhibited ([1]; hMSC infected with Ror2-specific shRNA, 100 nM dex, 9 days) | calcified matrix formation in absence of dex ([1]; hMSC infected with Ror2 adenovirus, no dex, 19 days, vs non-specific goat IgG) | extent of calcified matrix formation (alizarin red-S) ([1]; hMSC, osteogenic cocktail with 100 nM dex, increasing amounts of IgG, 9 days) | phosphorylation of 14-3-3β protein (14-3-3β protein) | in vitro kinase assay, immunoblot with phosphotyrosine antibody [2] |
| --- | --- | --- | --- | --- | --- | --- | --- | --- | --- | --- |
| strongly enhanced | robust dose-dependent increase | significant autophosphorylation | anti-Ror2 antibody: Ror2-specific goat polyclonal IgG raised against the extracellular domain of human Ror2, R&D Systems, AF2064 | 85 | 50 | disappeared | induced calcified matrix formation | dose-dependently increased | phosphorylation | – |
| – | – | – | purified recombinant GST-tagged cytosolic domain of human Ror2 (Invitrogen) (protein) VCMCRNKQKASASTPQRRQLMASPSQDMEMPLINQHKQAKLKEISLSAVRFMEELGEDRFGKVYKGHLFGPAPGEQTQAVAIKTLKDKAEGPLREEFRHEAMLRARLQHPNVVCLLGVVTKDQPLSMIFSYCSHGDLHEFLVMRSPHSDVGSTDDDRTVKSALEPPDFVHLVAQIAAGMEYLSSHHVVHKDLATRNVLVYDKLNVKISDLGLFREVYAADYYKLLGNSLLPIRWMAPEAIMYGKFSIDSDIWSYGVVLWEVFSYGLQPYCGYSNQDVVEMIRNRQVLPCPDDCPAWVYALMIECWNEFPSRRPRFKDIHSRLRAWGNLSNYNSSAQTSGASNTTQTSSLSTSPVSNVSNARYVGPKQKAPPFPQPQFIPMKGQIRPMVPPPQLYVPVNGYQPVPAYGAYLPNFYPVQIPMQMAPQQVPPQMVPKPSSHHSGSGSTSTGYVTTAPSNTSMADRAALLSEGADDTQNAPEDGAQSTVQEAEEEEEGSVPETELLGDCDTLQVDEAQVQLEA | – | – | – | – | – | – | Ror2c phosphorylated both 14-3-3 β and itself |
